# Laboratory results: patent US9487510B2, “Substituted heterocyclic acetamides as kappa opioid receptor (KOR) agonists” (Dr. Reddy's Laboratories Ltd., priority 2012, dated 2016)
# Counter-ions that a name gives are not always drawn.
# Biological target: human KOR receptor (Homo sapiens, UniProt P41145)
# Assay: IP-One HTRF assay, potency of KOR agonists, dose-response in transiently transfected COS-7 cells
# Format: cell-based
# Sequence of human KOR receptor (P41145 whole entry): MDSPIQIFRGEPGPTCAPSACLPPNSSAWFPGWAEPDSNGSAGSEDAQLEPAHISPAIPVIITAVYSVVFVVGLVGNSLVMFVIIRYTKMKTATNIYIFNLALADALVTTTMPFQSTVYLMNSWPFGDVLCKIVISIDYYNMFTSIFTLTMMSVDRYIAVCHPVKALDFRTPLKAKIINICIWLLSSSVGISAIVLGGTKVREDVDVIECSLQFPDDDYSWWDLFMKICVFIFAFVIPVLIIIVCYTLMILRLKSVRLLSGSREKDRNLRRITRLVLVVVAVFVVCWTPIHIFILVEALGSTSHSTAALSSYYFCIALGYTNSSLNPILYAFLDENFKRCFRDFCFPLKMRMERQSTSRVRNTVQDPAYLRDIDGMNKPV
row,Structure (SMILES),EC50 [nM]
1,"CC(C)(C)OC(=O)COc1cccc(C(CN2CC[C@H](O)C2)NC(=O)Cc2ccc3oc(=O)[nH]c3c2)c1 (mixture of isomers) [Example 74, (S)-tert-butyl 2-(3-(2-(3-hydroxypyrrolidin-1-yl)-1-(2-(2-oxo-2,3-dihydrobenzo[d]oxazol-5-yl)acetamido)ethyl)phenoxy)acetate]",≤ 50
2,"CN(C(=O)Cc1ccc2oc(=O)[nH]c2c1)C(CN1CC[C@H](O)C1)c1cccc(OCC#N)c1 (mixture of isomers) [Example 76, N-(1-(3-(cyanomethoxy)phenyl)-2-(3-hydroxypyrrolidin-1-yl)ethyl)-N-methyl-2-(2-oxo-2,3-dihydrobenzo[d]oxazol-5-yl)acetamide]",≤ 50
3,"O=C(O)COc1cccc(C(CN2CC[C@H](O)C2)NC(=O)Cc2ccc3c(c2)NC(=O)C3)c1 (mixture of isomers) [Example 100, (S)-2-(3-(2-(3-hydroxypyrrolidin-1-yl)-1-(2-(2-oxoindolin-6-yl)acetamido)ethyl)phenoxy)acetic acid hydrochloride]",≤ 50
4,"O=C(O)COc1cccc(C(CN2CC[C@H](O)C2)NC(=O)Cc2ccc3oc(=O)[nH]c3c2)c1 (mixture of isomers) [Example 101, (S)-2-(3-(2-(3-hydroxypyrrolidin-1-yl)-1-(2-(2-oxo-2,3-dihydrobenzo[d]oxazol-5-yl)acetamido)ethyl)phenoxy)acetic acid]",≤ 50
5,"CN(C(=O)Cc1ccc2oc(=O)[nH]c2c1)C(CN1CC[C@H](O)C1)c1cccc(OCc2nn[nH]n2)c1 (stereo in doubt) [Example 105, (R)-N-(1-(3-((2H-tetrazol-5-yl)methoxy)phenyl)-2-(3-hydroxypyrrolidin-1-yl)ethyl)-N-methyl-2-(2-oxo-2,3-dihydrobenzo[d]oxazol-5-yl)acetamide]",≤ 50
6,"CN(C(=O)Cc1ccc2c(c1)NC(=O)CS2(=O)=O)[C@H](CN1CCC(O)C1)c1ccccc1 (stereo in doubt) [Example 120, 2-(1,1-dioxido-3-oxo-3,4-dihydro-2H-benzo[b][1,4]thiazin-6-yl)-N-((S)-2-((S)-3-hydroxypyrrolidin-1-yl)-1-phenylethyl)-N-methylacetamide]",≤ 50
7,"CC(C)CN(C(=O)Cc1ccc2c(c1)NC(=O)CS2(=O)=O)[C@H](CN1CCC(O)C1)c1cccc(OC(F)(F)F)c1 (stereo in doubt) [Example 140, 2-(1,1-dioxido-3-oxo-3,4-dihydro-2H-benzo[b][1,4]thiazin-6-yl)-N-((S)-2-((S)-3-hydroxypyrrolidin-1-yl)-1-(3-(trifluoromethoxy)phenyl)ethyl)-N-isobutylacetamide]",≤ 50
8,"O=C1CS(=O)(=O)c2ccc(CC(=O)N(CC3CC3)[C@H](CN3CCC(O)C3)c3cccc(OC(F)(F)F)c3)cc2N1 (stereo in doubt) [Example 141, N-(cyclopropylmethyl)-2-(1,1-dioxido-3-oxo-3,4-dihydro-2H-benzo[b][1,4]thiazin-6-yl)-N-((S)-2-((S)-3-hydroxypyrrolidin-1-yl)-1-(3-(trifluoromethoxy)phenyl)ethyl)acetamide]",≤ 50
9,"CN(C(=O)Cc1ccc2c(c1)NC(=O)CS2(=O)=O)C(CN1CC[C@H](O)C1)c1ccc(OC(F)(F)F)cc1 (stereo in doubt) [Example 142, 2-(1,1-dioxido-3-oxo-3,4-dihydro-2H-benzo[b][1,4]thiazin-6-yl)-N-((S)-2-((S)-3-hydroxypyrrolidin-1-yl)-1-(4-(trifluoromethoxy)phenyl)ethyl)-N-methylacetamide]",≤ 50
10,"Cc1cc(C)cc([C@@H](CN2CCC(O)C2)N(C)C(=O)Cc2ccc3c(c2)NC(=O)CS3(=O)=O)c1 (stereo in doubt) [Example 147, N-((S)-1-(3,5-dimethylphenyl)-2-((S)-3-hydroxypyrrolidin-1-yl)ethyl)-2-(1,1-dioxido-3-oxo-3,4-dihydro-2H-benzo[b][1,4]thiazin-6-yl)-N-methylacetamide]",≤ 50
11,"CN(C(=O)Cc1ccc2c(c1)NC(=O)CS2(=O)=O)C(CN1CCC(O)C1)c1cccc(C2CC2)c1 (stereo in doubt) [Example 150, N-((S)-1-(3-cyclopropylphenyl)-2-((S)-3-hydroxypyrrolidin-1-yl)ethyl)-2-(1,1-dioxido-3-oxo-3,4-dihydro-2H-benzo[b][1,4]thiazin-6-yl)-N-methylacetamide]",≤ 50
12,"CN(C(=O)Cc1ccc2c(c1)CC(=O)N2)C(CN1CCC(O)C1)c1ccccc1 (stereo in doubt) [Example 161, N-((S)-2-((S)-3-hydroxypyrrolidin-1-yl)-1-phenylethyl)-N-methyl-2-(2-oxoindolin-5-yl)acetamide]",≤ 50
13,"O=C1COc2ccc(CC(=O)N[C@H](CN3CC[C@H](O)C3)c3ccccc3)cc2N1 [Example 2, N-[(1S)-2-[(3S)-3-hydroxypyrrolidin-1-yl]-1-phenylethyl]-2-(3-oxo-3,4-dihydro-2H-1,4-benzoxazin-6-yl)acetamide]",≤ 50
14,"O=C(Cc1ccc2sc(=O)[nH]c2c1)N[C@H](CN1CCCC1)c1ccccc1 [Example 4, (S)-2-(2-oxo-2,3-dihydrobenzo[d]thiazol-5-yl)-N-(1-phenyl-2-(pyrrolidin-1-yl)ethyl)acetamide]",51 to 100
15,"CN(C(=O)Cc1ccc2c(c1)NC(=O)CS2(=O)=O)[C@H](CN1CC[C@H](O)C1)c1cccc(OC(F)(F)F)c1 [Example 5, 2-(1,1-dioxido-3-oxo-3,4-dihydro-2H-benzo [b][1,4]thiazin-6-yl)-N-((S)-2-((S)-3-hydroxypyrrolidin-1-yl)-1-(3-(trifluoromethoxy)phenyl)ethyl)-N-methylacetamide]",≤ 50
16,"CN(C(=O)Cc1ccc2c(c1)NC(=O)CS2(=O)=O)[C@H](CN1CC[C@H](O)C1)c1cccc(C#N)c1 [Example 6, N-((S)-1-(3-cyanophenyl)-2-((S)-3-hydroxypyrrolidin-1-yl)ethyl)-2-(1,1-dioxido-3-oxo-3,4-dihydro-2H-benzo[b][1,4]thiazin-6-yl)-N-methylacetamide]",≤ 50
17,"CN(C(=O)Cc1ccc2c(c1)NC(=O)CS2)[C@H](CN1CC[C@H](O)C1)c1ccccc1 [Example 7, N-((S)-2-((S)-3-hydroxypyrrolidin-1-yl)-1-phenylethyl)-N-methyl-2-(3-oxo-3,4-dihydro-2H-benzo[b][1,4]thiazin-6-yl)acetamide]",≤ 50
18,"CN(C(=O)Cc1ccc2c(c1)S(=O)(=O)NC2=O)[C@H](CN1CC[C@H](O)C1)c1ccccc1 [Example 8, 2-(1,1-dioxido-3-oxo-2,3-dihydrobenzo[d]isothiazol-6-yl)-N-((S)-2-((S)-3-hydroxypyrrolidin-1-yl)-1-phenylethyl)-N-methylacetamide]",≥ 1000
19,"CN(C(=O)Cc1ccc2c(c1)NS(=O)(=O)C2)[C@H](CN1CC[C@H](O)C1)c1cccc(C(F)(F)F)c1 [Example 9, 2-(2,2-dioxido-1,3-dihydrobenzo[c]isothiazol-6-yl)-N-((S)-2-((S)-3-hydroxypyrrolidin-1-yl)-1-(3-(trifluoromethyl)phenyl)ethyl)-N-methylacetamide]",101 to 1000
20,"CN(C(=O)Cc1ccc2c(c1)CS(=O)(=O)N2)[C@H](CN1CC[C@H](O)C1)c1ccccc1 [Example 10, 5-(2-(((S)-2-((S)-3-hydroxypyrrolidin-1-yl)-1-phenylethyl)(methyl)amino)-2-oxoethyl)-1,3-dihydrobenzo[c]isothiazol-1-ium 2,2-dioxide 2,2,2-trifluoroacetate]",101 to 1000
21,"CN(C(=O)Cc1ccc2c(c1)NC(=O)CS2(=O)=O)[C@H](CN1CC[C@H](O)C1)c1cccc(OC(F)F)c1 [Example 11, N-((S)-1-(3-(difluoromethoxy)phenyl)-2-((S)-3-hydroxypyrrolidin-1-yl)ethyl)-2-(1,1-dioxido-3-oxo-3,4-dihydro-2H-benzo[b][1,4]thiazin-6-yl)-N-methylacetamide]",≥ 1000
22,"CN(C(=O)Cc1ccc2c(c1)NC(=O)C2(F)F)[C@H](CN1CC[C@H](O)C1)c1ccccc1 [Example 12, 2-(3,3-difluoro-2-oxoindolin-6-yl)-N-((S)-2-((S)-3-hydroxypyrrolidin-1-yl)-1-phenylethyl)-N-methylacetamide]",≤ 50
23,"O=C(Cc1ccc2c(c1)NC(=O)C2(F)F)N[C@H](CN1CC[C@H](O)C1)c1ccccc1 [Example 13, 2-(3,3-difluoro-2-oxoindolin-6-yl)-N-((S)-2-((S)-3-hydroxypyrrolidin-1-yl)-1-phenylethyl)acetamide]",≥ 1000
24,"CCN(C(=O)Cc1ccc2c(c1)NC(=O)CS2(=O)=O)[C@H](CN1CC[C@H](O)C1)c1cccc(OC(F)(F)F)c1 [Example 14, 2-(1,1-dioxido-3-oxo-3,4-dihydro-2H-benzo[b][1,4]thiazin-6-yl)-N-ethyl-N-((S)-2-((S)-3-hydroxypyrrolidin-1-yl)-1-(3-(trifluoromethoxy)phenyl)ethyl)acetamide]",≥ 1000
25,"CO[C@H]1CCN(C[C@H](c2cccc(OC(F)(F)F)c2)N(C)C(=O)Cc2ccc3c(c2)NC(=O)CS3(=O)=O)C1 [Example 15, 2-(1,1-dioxido-3-oxo-3,4-dihydro-2H-benzo[b][1,4]thiazin-6-yl)-N-((S)-2-((S)-3-methoxypyrrolidin-1-yl)-1-(3-(trifluoromethoxy)phenyl)ethyl)-N-methylacetamide]",≤ 50
26,"O=C1CS(=O)(=O)c2ccc(CC(=O)N(CC(F)(F)F)[C@H](CN3CC[C@H](O)C3)c3cccc(OC(F)(F)F)c3)cc2N1 [Example 16, 2-(1,1-dioxido-3-oxo-3,4-dihydro-2H-benzo[b][1,4]thiazin-6-yl)-N-((S)-2-((S)-3-hydroxypyrrolidin-1-yl)-1-(3-(trifluoromethoxy)phenyl)ethyl)-N-(2,2,2-trifluoroethyl)acetamide 2,2,2-trifluoroacetate]",≤ 50
27,"CN(C(=O)Cc1ccc2c(c1)NC(=O)CS2(=O)=O)C(CN1CC[C@H](O)C1)C1CCOCC1 (stereo partly drawn) [Example 17, 2-(1,1-dioxido-3-oxo-3,4-dihydro-2H-benzo[b][1,4]thiazin-6-yl)-N-(2-((S)-3-hydroxypyrrolidin-1-yl)-1-(tetrahydro-2H-pyran-4-yl)ethyl)-N-methylacetamide-2,2,2-trifluoroacetate]",101 to 1000
28,"CN(C(=O)Cc1ccc2sc(=O)[nH]c2c1)[C@H](CN1CC[C@H](O)C1)c1cccc(C(=O)O)c1 [Example 18, 3-((S)-2-((S)-3-hydroxypyrrolidin-1-yl)-1-(N-methyl-2-(2-oxo-2,3-dihydrobenzo[d]thiazol-5-yl)acetamido)ethyl)benzoic acid]",≤ 50
